Source: ChEMBL document CHEMBL1201862, “PubChem BioAssay data set” (2004)
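Cultured in 96-well plates, cells were exposed to test compound for 48 hours across five concentrations. GI50 = concentration required for 50% inhibition of growth.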 Active and inactive are the calls of the source. No stated cut-off is given here; in the data, active = GI50 up to about 1.1 µM and inactive = higher. Starred links: 1 amine or outer side, 2 acyl side, 3 side chain; linkers in the order of their positions; H or OH if unused. Positions of bridges follow the written chain, without caps; N, C: chain ends. Non-standard residues stand in square brackets, D forms with d. Residues, ends and D or L forms follow the SMILES beside them. ξ: configuration not given here. X11 = CCC(C)C(N[*:1])C(O)CC(=O)O[C@H](C(=O)C(C)C(=O)[*:2])C(C)C; X10 = O=C([C@@H]1CC(O)CN1[*:1])[*:2]; NMeY = CN[C@@H](Cc1ccc(O)cc1)C(=O)O; ξNMeL = CNC(CC(C)C)C(=O)O; ξT = CC(O)C(N)C(=O)O

Experiments:
Assay in all cases: NCI tumour cell line growth inhibition, 48 h
HCT-116 = system: HCT-116
NCI-H226 = system: NCI-H226
HCC 2998 = system: HCC 2998
SK-MEL-28 = system: SK-MEL-28
COLO 205 = system: COLO 205
MOLT-4 = system: MOLT-4
K562 = system: K562
SK-OV-3 = system: SK-OV-3
RPMI-8226 = system: RPMI-8226
A498 = system: A498
HL-60 = system: HL-60
KM12 = system: KM12
SN12C = system: SN12C
RXF 393 = system: RXF 393
NCI-H23 = system: NCI-H23
HCT-15 = system: HCT-15
SF-539 = system: SF-539
786-0 = system: 786-0
SF-268 = system: SF-268
SW-620 = system: SW-620

Row | Compound | GI50 (HCT-116) | GI50 (NCI-H226) | GI50 (HCC 2998) | GI50 (SK-MEL-28) | GI50 (COLO 205) | GI50 (MOLT-4) | GI50 (K562) | GI50 (SK-OV-3) | GI50 (RPMI-8226) | GI50 (A498) | GI50 (HL-60) | GI50 (KM12) | GI50 (SN12C) | GI50 (RXF 393) | GI50 (NCI-H23) | GI50 (HCT-15) | GI50 (SF-539) | GI50 (786-0) | GI50 (SF-268) | GI50 (SW-620)
1 | C[C@@]12CCC(=O)C=C1CC[C@H]1C2=CC[C@]2(C)C1CC[C@@]2(C)O (stereo not given in full) | 52 µM (inactive) | > 100 µM (inactive) | 49 µM (inactive) | > 100 µM (inactive) | 35 µM (inactive) | 38.4 µM (inactive) | 38.4 µM (inactive) | 54.6 µM (inactive) | 54.7 µM (inactive) | > 100 µM (inactive) | 25.4 µM (inactive) | 29.7 µM (inactive) | 88.7 µM (inactive) | > 100 µM (inactive) | 66.8 µM (inactive) | 36.2 µM | 61.9 µM (inactive) | > 100 µM (inactive) | 75.2 µM (inactive) | 40.6 µM (inactive)
2 | O=[N+]([O-])/C=C/c1cn(CCCCCCCCn2cc(/C=C/[N+](=O)[O-])c3ccccc32)c2ccccc12 | 0.211 µM (active) | > 10 µM (inactive) | 7.59 µM (inactive) | > 10 µM (inactive) | > 10 µM (inactive) | > 10 µM (inactive) | > 10 µM (inactive) | > 10 µM (inactive) | 0.41 µM (active) | > 10 µM (inactive) | > 10 µM (inactive) | > 10 µM (inactive) | > 10 µM (inactive) | > 10 µM (inactive) | > 10 µM (inactive) | > 10 µM | > 10 µM (inactive) | > 10 µM (inactive) | > 10 µM (inactive) | > 10 µM (inactive)
3 | CN(C)C(=S)SCC(N)=O | > 100 µM (inactive) | 45.3 µM (inactive) | > 100 µM (inactive) | > 100 µM (inactive) | > 100 µM (inactive) | > 100 µM (inactive) | > 100 µM (inactive) | > 100 µM (inactive) | > 100 µM (inactive) | > 100 µM (inactive) | > 100 µM (inactive) | > 100 µM (inactive) | > 100 µM (inactive) | > 100 µM (inactive) | > 100 µM (inactive) | > 100 µM | > 100 µM (inactive) | > 100 µM (inactive) | > 100 µM (inactive) | > 100 µM (inactive)
4 | COc1cc2c(cc1O)CC[C@@H]1C2CC[C@@]2(C)C1CC[C@@H]2O (stereo not given in full) | 1.19 µM (inactive) | 48.5 µM (inactive) | 9.62 µM (inactive) | 3.7 µM (inactive) | 36.7 µM (inactive) | 0.532 µM (active) | 0.312 µM (active) | 3.22 µM (inactive) | 0.57 µM (active) | 16.7 µM (inactive) | 0.47 µM (active) | 4.43 µM (inactive) | 6.85 µM (inactive) | 6.24 µM (inactive) | 2.05 µM (inactive) | 0.566 µM | 0.807 µM (active) | 2.07 µM (inactive) | 3.43 µM (inactive) | 0.635 µM (active)
5 | CC#C[C@@]1(O)CCCC[C@@H]1O | > 100 µM (inactive) | > 100 µM (inactive) | > 100 µM (inactive) | > 100 µM (inactive) | > 100 µM (inactive) | > 100 µM (inactive) | > 100 µM (inactive) | > 100 µM (inactive) | > 100 µM (inactive) | > 100 µM (inactive) | > 100 µM (inactive) | > 100 µM (inactive) | > 100 µM (inactive) | > 100 µM (inactive) | > 100 µM (inactive) | > 100 µM | > 100 µM (inactive) | > 100 µM (inactive) | > 100 µM (inactive) | > 100 µM (inactive)
6 | CCC(C)C1NC(=O)C(NC(=O)C(CC(C)C)N(C)C(=O)[C@@H]2CC(O)CN2)C(C)OC(=O)[C@H](Cc2ccc(OC)cc2)N(C)C(=O)[C@@H]2CCCN2C(=O)[C@H](CC(C)C)NC(=O)C(C)C(=O)[C@H](C(C)C)OC(=O)CC1O (stereo not given in full) (H-[X10][ξNMeL][ξT][X11]LP[NMeY](Me); ester 3-C) | 0.00143 µM (active) | 0.00182 µM (active) | 0.00469 µM (active) | < 0.001 µM (active) | 0.00309 µM (active) | 0.00161 µM (active) | 0.00394 µM (active) | 0.00321 µM (active) | 0.0082 µM (active) | 0.0548 µM (active) | 0.0114 µM (active) | < 0.001 µM (active) | 0.00951 µM (active) | 0.0115 µM (active) | 0.01 µM (active) | 0.472 µM | 0.00157 µM (active) | 0.0121 µM (active) | 0.011 µM (active) | 0.0108 µM (active)
7 | CC12CCC(O)CC1CCC1C2CCC2(C)C(C(=O)CC(O)C(F)(F)F)CCC12 (stereo not given) | 28.4 µM (inactive) | 40 µM (inactive) | 21.6 µM (inactive) | 73.5 µM (inactive) | 12.2 µM (inactive) | 9.35 µM (inactive) | 3.8 µM (inactive) | 27 µM (inactive) | 4.04 µM (inactive) | 20.2 µM (inactive) | 9.02 µM (inactive) | 17.1 µM (inactive) | > 100 µM (inactive) | 7.87 µM (inactive) | 40.9 µM (inactive) | 9.06 µM | 35.2 µM (inactive) | 7.46 µM (inactive) | 33.7 µM (inactive) | 40.5 µM (inactive)
8 | Fc1cccc(CSc2ncnc3c2ncn3C2CCCS2)c1 (stereo not given) | 8.34 µM (inactive) | 29.2 µM (inactive) | 21.9 µM (inactive) | 18.9 µM (inactive) | 10.2 µM (inactive) | 3.77 µM (inactive) | 8.77 µM (inactive) | 38.5 µM (inactive) | 7.08 µM (inactive) | 17.3 µM (inactive) | 8.83 µM (inactive) | 15.4 µM (inactive) | 25.8 µM (inactive) | 17.3 µM (inactive) | 23.9 µM (inactive) | 8.51 µM | 11.7 µM (inactive) | 20.7 µM (inactive) | 14.8 µM (inactive) | 29.9 µM (inactive)
9 | CNNC(=NS(=O)(=O)c1cc(C#N)c(NNC)cc1S)NNC | > 10 µM (inactive) | > 10 µM (inactive) | > 10 µM (inactive) | > 10 µM (inactive) | > 10 µM (inactive) | > 10 µM (inactive) | > 10 µM (inactive) | > 10 µM (inactive) | > 10 µM (inactive) | > 10 µM (inactive) | > 10 µM (inactive) | > 10 µM (inactive) | > 10 µM (inactive) | > 10 µM (inactive) | > 10 µM (inactive) | > 10 µM | > 10 µM (inactive) | > 10 µM (inactive) | > 10 µM (inactive) | > 10 µM (inactive)
10 | COC1=C(C(c2cc(OC)c(OC)c(OC)c2)c2cc3c(cc2OC)OCO3)C(=O)OC1 (stereo not given) | 7.01 µM (inactive) | 28.4 µM (inactive) | 44.1 µM (inactive) | 12.7 µM (inactive) | 23.8 µM (inactive) | 44.2 µM (inactive) | 15 µM (inactive) | 41.2 µM (inactive) | 46 µM (inactive) | 14.9 µM (inactive) | 8.55 µM (inactive) | 11.6 µM (inactive) | 34.8 µM (inactive) | 11.7 µM (inactive) | 24.8 µM (inactive) | 20.4 µM | 15.4 µM (inactive) | 26.1 µM (inactive) | 24.6 µM (inactive) | 27 µM (inactive)
11 | C[C@@H]1O[C@]2(O)[C@@H]3CCCN3S(=O)(=O)CCN2C1=O | > 100 µM (inactive) | > 100 µM (inactive) | > 100 µM (inactive) | > 100 µM (inactive) | > 100 µM (inactive) | > 100 µM (inactive) | > 100 µM (inactive) | > 100 µM (inactive) | > 100 µM (inactive) | > 100 µM (inactive) | > 100 µM (inactive) | > 100 µM (inactive) | > 100 µM (inactive) | > 100 µM (inactive) | > 100 µM (inactive) | > 100 µM | > 100 µM (inactive) | > 100 µM (inactive) | > 100 µM (inactive) | > 100 µM (inactive)
12 | CCCCCCNC(=O)C1=C(C)NC(C)=C(C(=O)NCCCCCC)C1 | > 100 µM (inactive) | > 100 µM (inactive) | > 100 µM (inactive) | > 100 µM (inactive) | > 100 µM (inactive) | > 100 µM (inactive) | 65.8 µM (inactive) | > 100 µM (inactive) | > 100 µM (inactive) | > 100 µM (inactive) | 31 µM (inactive) | > 100 µM (inactive) | > 100 µM (inactive) | > 100 µM (inactive) | > 100 µM (inactive) | > 100 µM | > 100 µM (inactive) | > 100 µM (inactive) | > 100 µM (inactive) | > 100 µM (inactive)
13 | C[C@]12CC[C@H](O[C@@H]3O[C@H](CO[C@@H]4O[C@H](CO)[C@@H](O)[C@H](O)[C@H]4O)[C@@H](O)[C@H](O)[C@H]3O)C[C@@H]1CC[C@@H]1[C@@H]2CC[C@]2(C)[C@@H](C3=CC(=O)OC3)CC[C@]12O [UZARIN] | 9.06 µM (inactive) | 42.2 µM (inactive) | 21.9 µM (inactive) | > 80 µM (inactive) | 50.1 µM (inactive) | 4.02 µM (inactive) | 24.2 µM (inactive) | 35.3 µM (inactive) | 43.4 µM (inactive) | 24.9 µM (inactive) | 20.2 µM (inactive) | 47.8 µM (inactive) | 20.1 µM (inactive) | 12.5 µM (inactive) | 11.1 µM (inactive) | 18.2 µM | 15.5 µM (inactive) | 43.6 µM (inactive) | 11 µM (inactive) | 31.6 µM (inactive)
14 | CN(/N=C/c1cccc2cccnc12)c1ccc([N+](=O)[O-])cc1[N+](=O)[O-] | 35.1 µM (inactive) | 24 µM (inactive) | 71 µM (inactive) | > 88.1 µM (inactive) | 86.3 µM (inactive) | > 100 µM (inactive) | > 100 µM (inactive) | 20.6 µM (inactive) | > 90.2 µM (inactive) | 17.4 µM (inactive) | 40.8 µM (inactive) | > 100 µM (inactive) | 46.1 µM (inactive) | 17.1 µM (inactive) | 24.5 µM (inactive) | 63 µM | 11.3 µM (inactive) | 13.3 µM (inactive) | 18.5 µM (inactive) | 99.5 µM (inactive)
